The text below walks through data of ChEMBL document CHEMBL3797105, “Investigation of triazole-linked indole and oxindole glycoconjugates as potential anticancer agents: novel Akt/PKB signaling pathway inhibitors” (Medchemcomm, 2016).

Usually IC50 stands for the point on the concentration scale where inhibition reaches its midpoint.

The structures appear in SMILES notation.

A short description of test [1]: Cytotoxicity against human DU145 cells after 48 hrs by sulforhodamine B assay. Format: functional, cell-based. To be noted: DU-145, 48 h. Background: The SRB assay estimates cell density from bound dye.
Test [2] has as its system A549. Briefly: Cytotoxicity against human A549 cells after 48 hrs by sulforhodamine B assay. Format: functional, cell-based. Conditions: A549, 48 h.
The nature of test [3]: Cytotoxicity against mouse NIH/3T3 cells after 48 hrs by sulforhodamine B assay. To be noted: NIH3T3, 48 h.
In test [4] the test system is MCF7. Briefly: Cytotoxicity against human MCF7 cells after 48 hrs by sulforhodamine B assay. To be noted: MCF7, 48 h. Format: functional, cell-based.
The subject of test [5] is HeLa. In words: Cytotoxicity against human HeLa cells after 48 hrs by sulforhodamine B assay. Format: functional, cell-based.

With `COc1ccc(/C=C2\C(=O)N(Cc3cn([C@@H]4O[C@H](COC(C)=O)[C@@H](OC(C)=O)[C@H](OC(C)=O)[C@H]4OC(C)=O)nn3)c3ccccc32)cc1OC`, the IC50 was 24.9 µM in test [1]; 23.3 µM in test [2]; greater than 100 µM in test [3]; 23.5 µM in test [4]; 63.4 µM in test [5].
Turning to `COc1cccc2c1C(=O)c1c(O)c3c(c(O)c1C2=O)C[C@@](O)(C(=O)CO)C[C@@H]3O[C@H]1C[C@H](N)[C@H](O)[C@H](C)O1` [DOXORUBICIN], the IC50 in test [1] amounted to 5.4 µM; in test [3] it was 10.1 µM; in test [4] it was 6.1 µM; in test [5], 7.2 µM.
Take `CC(=O)OC[C@H]1O[C@@H](n2cc(Cn3cc([N+](=O)[O-])c4ccccc43)nn2)[C@H](OC(C)=O)[C@@H](OC(C)=O)[C@@H]1OC(C)=O`: the IC50 in test [1] is 60.9 µM; in test [2], 93.2 µM; in test [3], 20.5 µM; in test [4] it was greater than 200 µM; in test [5] it was greater than 200 µM.
Consider `CC(=O)OC[C@H]1O[C@@H](n2cc(Cn3cc(/C=C4/C(=O)Nc5ccc(F)cc54)c4ccccc43)nn2)[C@H](OC(C)=O)[C@@H](OC(C)=O)[C@@H]1OC(C)=O`, for which the IC50 in test [1] is 87.4 µM; in test [2], 36.9 µM; in test [3], 62.5 µM; in test [4] it was 40.4 µM; in test [5], greater than 200 µM.
With `Cc1ccc(/C=C2/C(=O)Nc3ccccc32)cc1`, the IC50 in test [1], in test [2], in test [3], in test [4] and in test [5] was greater than 100 µM in each case.
Consider `CC(=O)OC[C@H]1O[C@@H](n2cc(CN3C(=O)/C(=C\c4ccc(N(C)C)cc4)c4ccccc43)nn2)[C@H](OC(C)=O)[C@@H](OC(C)=O)[C@@H]1OC(C)=O`, for which the half-maximal inhibitory concentration (IC50) was 10.1 µM in test [1]; 17.7 µM in test [2]; 17 µM in test [3]; 29.8 µM in test [4]; 25 µM in test [5].
On the same counts, the results for `CC(=O)OC[C@H]1O[C@@H](n2cc(CN3C(=O)/C(=C/c4ccccn4)c4ccccc43)nn2)[C@H](OC(C)=O)[C@@H](OC(C)=O)[C@@H]1OC(C)=O` are 48.3 µM, 26.1 µM, greater than 100 µM, 32.1 µM and 51.7 µM.
On the same counts, the results for `CC(=O)OC[C@H]1O[C@@H](OC(C)=O)[C@H](OC(C)=O)[C@@H](OC(C)=O)[C@@H]1OC(C)=O` are greater than 200 µM, greater than 200 µM, greater than 200 µM, greater than 200 µM and greater than 200 µM.
On the same counts, the results for `COc1ccc2c(c1)c(C=O)cn2Cc1cn([C@@H]2O[C@H](COC(C)=O)[C@@H](OC(C)=O)[C@H](OC(C)=O)[C@H]2OC(C)=O)nn1` are 136 µM, 106 µM, greater than 200 µM, greater than 200 µM and greater than 200 µM.
For `CC(=O)OC[C@H]1O[C@@H](n2cc(CN3C(=O)/C(=C\c4ccccc4)c4ccccc43)nn2)[C@H](OC(C)=O)[C@@H](OC(C)=O)[C@@H]1OC(C)=O`, the IC50 in test [1] was 24.1 µM; in test [2], 17.9 µM; in test [3], 22.8 µM; in test [4], 24.3 µM; in test [5], 33.3 µM.
For `CC(=O)OC[C@H]1O[C@@H](n2cc(CN3C(=O)/C(=C/c4ccc5ccccc5c4)c4ccccc43)nn2)[C@H](OC(C)=O)[C@@H](OC(C)=O)[C@@H]1OC(C)=O`, in that order: 43.7 µM, 30.9 µM, 28.4 µM, 32.7 µM and greater than 100 µM.
For `CC(=O)OC[C@H]1O[C@@H](n2cc(Cn3cc(/C=C/C(=O)c4cccnc4)c4ccccc43)nn2)[C@H](OC(C)=O)[C@@H](OC(C)=O)[C@@H]1OC(C)=O`, in that order: 29 µM, 39.8 µM, greater than 200 µM, 22.3 µM and greater than 200 µM.
As for `CC(=O)OC[C@H]1O[C@@H](n2cc(Cn3cc(/C=C/C(=O)c4c5ccccc5cc5ccccc45)c4ccccc43)nn2)[C@H](OC(C)=O)[C@@H](OC(C)=O)[C@@H]1OC(C)=O`, the IC50 is 58.1 µM in test [1]; 46.8 µM in test [2]; greater than 200 µM in test [3]; 44 µM in test [4]; 165 µM in test [5].
Consider `CC(=O)OC[C@H]1O[C@@H](n2cc(CN3C(=O)/C(=C\c4ccc(C)cc4)c4ccccc43)nn2)[C@H](OC(C)=O)[C@@H](OC(C)=O)[C@@H]1OC(C)=O`, for which the IC50 in test [1] was 9.4 µM; in test [2], 16.5 µM; in test [3] it was 9 µM; in test [4], greater than 100 µM; in test [5], greater than 100 µM.
In the case of `COc1ccc2c(c1)c(/C=N/O)cn2Cc1cn([C@@H]2O[C@H](COC(C)=O)[C@@H](OC(C)=O)[C@H](OC(C)=O)[C@H]2OC(C)=O)nn1`, the IC50 is 88.4 µM in test [1]; greater than 200 µM in test [2]; 26.2 µM in test [3]; 51 µM in test [4]; greater than 200 µM in test [5].
As to `CC(=O)OC[C@H]1O[C@@H](n2cc(CN3C(=O)/C(=C\C=C\c4ccccc4)c4ccccc43)nn2)[C@H](OC(C)=O)[C@@H](OC(C)=O)[C@@H]1OC(C)=O`, the IC50 in test [1] is 19.5 µM; in test [2], 58.4 µM; in test [3], 25.9 µM; in test [4], 34.1 µM; in test [5], 98.1 µM.
For `CC(=O)OC[C@H]1O[C@@H](n2cc(CN3C(=O)/C(=C/C=C/c4ccccc4)c4ccccc43)nn2)[C@H](OC(C)=O)[C@@H](OC(C)=O)[C@@H]1OC(C)=O`, in that order: 17.1 µM, greater than 100 µM, 12.3 µM, 53.2 µM and greater than 100 µM.
For `CCC/C=C1/C(=O)N(Cc2cn([C@@H]3O[C@H](COC(C)=O)[C@@H](OC(C)=O)[C@H](OC(C)=O)[C@H]3OC(C)=O)nn2)c2ccccc21`, in that order: 19.7 µM, 24.1 µM, greater than 100 µM, 22.6 µM and greater than 100 µM.
For `CC(=O)OC[C@H]1O[C@@H](n2cc(CN3C(=O)/C(=C\c4ccco4)c4ccccc43)nn2)[C@H](OC(C)=O)[C@@H](OC(C)=O)[C@@H]1OC(C)=O`, in that order: 16.9 µM, 41.1 µM, 13.3 µM, 38.2 µM and greater than 100 µM.
Turning to `CC(=O)OC[C@H]1O[C@@H](n2cc(Cn3cc(/C=C4/C(=O)Nc5ccccc54)c4ccccc43)nn2)[C@H](OC(C)=O)[C@@H](OC(C)=O)[C@@H]1OC(C)=O`, the IC50 in test [1] was greater than 200 µM; in test [2], greater than 200 µM; in test [3], greater than 200 µM; in test [4], 22.2 µM; in test [5], greater than 200 µM.
Turning to `CCC/C=C1\C(=O)N(Cc2cn([C@@H]3O[C@H](COC(C)=O)[C@@H](OC(C)=O)[C@H](OC(C)=O)[C@H]3OC(C)=O)nn2)c2ccccc21`, the IC50 was 26.6 µM in test [1]; 40.4 µM in test [2]; greater than 100 µM in test [3]; 25 µM in test [4]; 46.3 µM in test [5].
Regarding `CC(=O)OC[C@H]1O[C@@H](n2cc(CN3C(=O)/C(=C\c4cccs4)c4ccccc43)nn2)[C@H](OC(C)=O)[C@@H](OC(C)=O)[C@@H]1OC(C)=O`, the half-inhibitory concentration (IC50) in test [1] is 22.8 µM; in test [2] it was 16.1 µM; in test [3], 14.6 µM; in test [4] it was 36.1 µM; in test [5] it was greater than 100 µM.
For `COc1ccc2c(c1)c(/C=C1/C(=O)Nc3ccc(F)cc31)cn2Cc1cn([C@@H]2O[C@H](COC(C)=O)[C@@H](OC(C)=O)[C@H](OC(C)=O)[C@H]2OC(C)=O)nn1`, in that order: greater than 200 µM, greater than 200 µM, greater than 200 µM, greater than 200 µM and greater than 200 µM.
For `O=C(/C=C/c1c[nH]c2ccccc12)c1ccccc1`, in that order: greater than 200 µM, greater than 200 µM, greater than 200 µM, greater than 200 µM and greater than 200 µM.
For `CC(=O)OC[C@H]1O[C@@H](n2cc(Cn3cc(C(C)=O)c4ccccc43)nn2)[C@H](OC(C)=O)[C@@H](OC(C)=O)[C@@H]1OC(C)=O`, in that order: 75.2 µM, greater than 200 µM, greater than 200 µM, greater than 200 µM and greater than 200 µM.
For `CC(=O)OC[C@H]1O[C@@H](n2cc(CN3C(=O)/C(=C\c4ccc5ccccc5c4)c4ccccc43)nn2)[C@H](OC(C)=O)[C@@H](OC(C)=O)[C@@H]1OC(C)=O`, the IC50 in test [1] was greater than 100 µM; in test [2] it was 62.2 µM; in test [3], 80 µM; in test [4], 46.5 µM; in test [5], greater than 100 µM.
On to `CC(=O)OC[C@H]1O[C@@H](n2cc(Cn3cc(C=O)c4ccccc43)nn2)[C@H](OC(C)=O)[C@@H](OC(C)=O)[C@@H]1OC(C)=O`, for which the IC50 in test [1] was 58.7 µM; in test [2] it was greater than 200 µM; in test [3], greater than 200 µM; in test [4] it was 25.2 µM; in test [5], 44.5 µM.
For `CC(=O)OC[C@H]1O[C@@H](n2cc(CN3C(=O)/C(=C/c4ccc(N(C)C)cc4)c4ccccc43)nn2)[C@H](OC(C)=O)[C@@H](OC(C)=O)[C@@H]1OC(C)=O`, the IC50 in test [1] was 11.2 µM; in test [2], 19.4 µM; in test [3], 12.7 µM; in test [4] it was 25.2 µM; in test [5] it was 26.3 µM.
On to `CC(=O)OC[C@H]1O[C@@H](n2cc(CN3C(=O)/C(=C/c4ccccc4)c4ccccc43)nn2)[C@H](OC(C)=O)[C@@H](OC(C)=O)[C@@H]1OC(C)=O`, for which the IC50 in test [1] was 22.8 µM; in test [2], 20.6 µM; in test [3], greater than 100 µM; in test [4] it was 30.2 µM; in test [5], 37.1 µM.
